Reference: patent US10577362B2, “Substituted 2, 4-diamino-quinoline derivatives for use in the treatment of proliferative diseases” (GENOSCIENCE PHARMA, priority 2016, dated 2020)

Key:
[1] = system: MOLM-14 (acute myeloid leukemia) cell line; assay: CellTiter-Glo luminescent cell viability assay, MOLM-14; format: cell-based, human; details: Homo sapiens, 72 h; for viability at 4 µM: MOLM-14, compound at 4 μM; for viability at 10 µM: MOLM-14, compound at 10 μM
Procedure, shortened: (§1)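 Cells were cultured at 37 °C, 5% CO2 with 10% FBS; adherent lines were plated overnight, suspension MOLM-14 plated 1 h before dosing. Compounds in H2O or DMSO were added at various concentrations for 72 h, and viability was read by luminescence. EC50 is the dose reducing signal to 50% of diluent control.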

[2] = system: A375 (malignant melanoma) cell line; assay: CellTiter-Glo luminescent cell viability assay, A375; format: cell-based, human; details: Homo sapiens, A-375, 72 h; for viability at 4 µM: A375, compound at 4 μM; for viability at 10 µM: A375, compound at 10 μM
Procedure, shortened: (§2)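 72 h compound exposure, 37 °C, 5% CO2, 10% FBS medium; ATP luminescence read after 30 min RT equilibration. Viability as % of H2O/DMSO diluent control; EC50 = dose giving 50% of control signal. Duplicate points minimum.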

[3] = system: HCT-116 (colorectal carcinoma) cell line; assay: CellTiter-Glo luminescent cell viability assay, HCT-116; format: cell-based, human; details: Homo sapiens, 72 h; for viability at 4 µM: HCT-116, compound at 4 μM; for viability at 10 µM: HCT-116, compound at 10 μM
Procedure, shortened: as §2

[4] = system: Huh7 (hepatocellular carcinoma) cell line; assay: CellTiter-Glo luminescent cell viability assay, Huh7; format: cell-based, human; details: Homo sapiens, Huh-7, 72 h; for viability at 4 µM: Huh7, compound at 4 μM; for viability at 10 µM: Huh7, compound at 10 μM
Procedure, shortened: as §1

[5] = system: 786-O (renal adenocarcinoma) cell line; assay: CellTiter-Glo luminescent cell viability assay, 786-O; format: cell-based, human; details: Homo sapiens, 786-0, 786-O, 72 h; for viability at 4 µM: compound at 4 μM; for viability at 10 µM: compound at 10 μM
Procedure, shortened: as §2

[6] = system: HepG2 (hepatocellular carcinoma) cell line; assay: CellTiter-Glo luminescent cell viability assay, HepG2; format: cell-based, human; details: Homo sapiens, HepG2, HepG, 72 h; for viability at 4 µM: compound at 4 μM; for viability at 10 µM: compound at 10 μM
Procedure, shortened: as §1

[7] = system: PANC-1 (prancreatic carcinoma) cell line; assay: CellTiter-Glo luminescent cell viability assay, PANC-1; format: cell-based; details: Homo sapiens, 72 h, % of signal of diluent-treated cultures; for viability at 4 µM: PANC-1, 4 μM; for viability at 10 µM: PANC-1, 10 μM
Experimental: All cell lines were maintained in medium containing 1% penicillin-streptomycin (Dutscher, P06-07100) and 10% Fetal Bovine Serum (Hyclone Dutscher, RZK35922) cultured at 37° C. with 5% CO2. HepG2 (hepatocellular carcinoma), cell line was cultured in Dulbecco's modified Eagle's medium low glucose (Gibco, 21885025), Huh7 (hepatocellular carcinoma), HCT-116 (colorectal carcinoma), PANC-1 (prancreatic carcinoma) and A375 (malignant melanoma) cell lines were cultured in Dulbecco's modified Eagle's medium (Dutscher, L0103). MOLM-14 (acute myeloid leukemia) cell line was maintained in MEM alpha medium (Gibco, 22561-021). 786-0 (renal adenocarcinoma) cell lines were maintained in RPMI 1640 medium (Dutscher, L0498).
Cell viability was measured using the CellTiter-Glo® luminescent cell viability assay as described by the manufacturer (Promega, Ref G7571) using an Infinite F200Pro luminometer (Tecan). Briefly, for adherent cells, cells were plated onto 96-well plates (white with clear bottom) in 90 μL of media per well and were allowed to grow overnight before the assay. For cells growing in suspension, cells were plated onto 96-well plates 1 h before the assay.
Compounds were resuspended in H2O or DMSO and added at different concentrations to each well, and cell cultures were incubated for 72 h. Each diluent (H2O or DMSO) were used as a control, and all compounds were tested in a constant percentage of H2O or DMSO. On the day of the reading, plates are equilibrated 30 min at room temperature before the addition of 100 μL of CellTiter-Glo® and luminescence was measured using an Infinite F200Pro (Tecan). % cell viability were expressed as a percentage of the signal obtained for cell cultures treated with diluent. EC50 values were determined as the dose of compound required to reduce luminescent values to 50% of the signal obtained for cell cultures treated with diluent. The experimental data were analyzed using a computer program, Graphpad Prism v5 (GraphPad Software, Inc. La Jolla, Calif.). All points were at least done in duplicate.

SMILES: CCN(CC)C1CCN(c2c(C#N)c(NCc3ccc(Cl)cc3)nc3ccccc23)C1 (centres unmarked) [Compound 126CN, 2-(4-chloro-benzylamino)-3-cyano-4-[3-(diethylamino)pyrrolidin-1-yl]quinoline]
- viability at 4 µM [1]: 105%
- viability at 10 µM [1]: 99.6%
- viability at 4 µM [2]: 92.5%
- viability at 10 µM [2]: 89.9%
- viability at 4 µM [3]: 97%
- viability at 10 µM [3]: 93.3%
- viability at 4 µM [4]: 98.9%
- viability at 10 µM [4]: 96.1%
- viability at 4 µM [5]: 91.2%
- viability at 10 µM [5]: 87.6%
- viability at 4 µM [6]: 104%
- viability at 10 µM [6]: 102%
- viability at 4 µM [7]: 106%
- viability at 10 µM [7]: 103%

SMILES: N#Cc1c(NCc2ccc(Cl)cc2)nc2ccccc2c1N1CCC(NC2CCCC2)C1 (centres unmarked) [Compound 134CN, 2-(4-chloro-benzylamino)-3-cyano-4-[3-(cyclopentyl-amino)pyrroli-din-1-yl]quinoline]
- viability at 4 µM [1]: 100%
- viability at 10 µM [1]: 89.5%
- viability at 4 µM [2]: 79.9%
- viability at 10 µM [2]: 29.1%
- viability at 4 µM [3]: 88.5%
- viability at 10 µM [3]: 50.6%
- viability at 4 µM [4]: 85.3%
- viability at 10 µM [4]: 70.5%
- viability at 4 µM [5]: 92.8%
- viability at 10 µM [5]: 64%
- viability at 4 µM [6]: 101%
- viability at 10 µM [6]: 81.3%
- viability at 4 µM [7]: 99.4%
- viability at 10 µM [7]: 91.7%

SMILES: N#Cc1c(NCc2ccc(Cl)cc2)nc2ccccc2c1N1CCC(NC2CCOCC2)C1 (centres unmarked) [Compound 136CN, 2-(4-chloro-benzylamino)-3-cyano-4-{3-[(tetrahydro-2H-pyran-4-yl)-amino]pyrroli-din-1-yl}quinoline]
- viability at 4 µM [1]: 95.7%
- viability at 10 µM [1]: 32%
- viability at 4 µM [2]: 110%
- viability at 10 µM [2]: 17.4%
- viability at 4 µM [3]: 73.3%
- viability at 10 µM [3]: 17.4%
- viability at 4 µM [4]: 87.6%
- viability at 10 µM [4]: 50.5%
- viability at 4 µM [5]: 75.7%
- viability at 10 µM [5]: 21.8%
- viability at 4 µM [6]: 88.6%
- viability at 10 µM [6]: 44.1%
- viability at 4 µM [7]: 91.7%
- viability at 10 µM [7]: 63.6%

SMILES: N#Cc1c(NCc2ccc(Cl)cc2)nc2ccccc2c1N1CCC(N2CCCC2)C1 (centres unmarked) [Compound 148CN, 2-(4-chloro-benzylamino)-3-cyano-4-[3-(pyrrolidin-1-yl)pyrrolidin-1-yl]quinoline]
- viability at 4 µM [1]: 92.9%
- viability at 10 µM [1]: 94.7%
- viability at 4 µM [2]: 94.1%
- viability at 10 µM [2]: 93.2%
- viability at 4 µM [3]: 93.5%
- viability at 10 µM [3]: 92.2%
- viability at 4 µM [4]: 91.9%
- viability at 10 µM [4]: 80.8%
- viability at 4 µM [5]: 88.2%
- viability at 10 µM [5]: 67%
- viability at 4 µM [6]: 104%
- viability at 10 µM [6]: 91.9%
- viability at 4 µM [7]: 102%
- viability at 10 µM [7]: 100%

SMILES: N#Cc1c(NCc2ccc(Cl)cc2)nc2ccccc2c1N1CCC(N2CCOCC2)C1 (centres unmarked) [Compound 150CN, 2-(4-chloro-benzylamino)-3-cyano-4-(3-morpholino-pyrrolidin-1-yl)quinoline]
- viability at 4 µM [1]: 109%
- viability at 10 µM [1]: 114%
- viability at 4 µM [2]: 97.9%
- viability at 10 µM [2]: 96.8%
- viability at 4 µM [3]: 99.5%
- viability at 10 µM [3]: 95.1%
- viability at 4 µM [4]: 93.8%
- viability at 10 µM [4]: 90.4%
- viability at 4 µM [5]: 96.1%
- viability at 10 µM [5]: 91.4%
- viability at 4 µM [6]: 100%
- viability at 10 µM [6]: 103%
- viability at 4 µM [7]: 101%
- viability at 10 µM [7]: 101%

SMILES: CC(C)(C)OC(=O)NC1CCCN(c2c(C#N)c(NCc3ccc(Cl)cc3)nc3ccccc23)C1 (centres unmarked) [Compound 154CN]
- viability at 4 µM [1]: 112%
- viability at 10 µM [1]: 113%
- viability at 4 µM [2]: 96.2%
- viability at 10 µM [2]: 88.5%
- viability at 4 µM [3]: 98.8%
- viability at 10 µM [3]: 87.2%
- viability at 4 µM [4]: 101%
- viability at 10 µM [4]: 93.5%
- viability at 4 µM [5]: 94.1%
- viability at 10 µM [5]: 82.3%
- viability at 4 µM [6]: 105%
- viability at 10 µM [6]: 97.5%
- viability at 4 µM [7]: 107%
- viability at 10 µM [7]: 99%

SMILES: CCN(CC)C1CCCN(c2c(C#N)c(NCc3ccc(Cl)cc3)nc3ccccc23)C1 (centres unmarked) [Compound 160CN, 2-(4-chlorobenzylamino)-3-cyano-4-[3-(diethylamino)piperidin-1-yl]quinoline]
- viability at 4 µM [1]: 106%
- viability at 10 µM [1]: 94.5%
- viability at 4 µM [2]: 86.6%
- viability at 10 µM [2]: 47.9%
- viability at 4 µM [3]: 86.4%
- viability at 10 µM [3]: 47.3%
- viability at 4 µM [4]: 89.5%
- viability at 10 µM [4]: 62.3%
- viability at 4 µM [5]: 94.9%
- viability at 10 µM [5]: 40%
- viability at 4 µM [6]: 94.5%
- viability at 10 µM [6]: 48.3%
- viability at 4 µM [7]: 99.6%
- viability at 10 µM [7]: 75.3%

SMILES: N#Cc1c(NCc2ccc(Cl)cc2)nc2ccccc2c1N1CCC(Oc2cccc(F)c2)C1 (centres unmarked) [Compound 3340CN, 2-(4-chlorobenzylamino)-3-cyano-4-[3-(3-fluorophenoxy)pyrrolidin-1-yl]quinoline]
- viability at 4 µM [1]: 96%
- viability at 10 µM [1]: 97.7%
- viability at 4 µM [2]: 95.9%
- viability at 10 µM [2]: 90.8%
- viability at 4 µM [3]: 101%
- viability at 10 µM [3]: 86.3%
- viability at 4 µM [4]: 85.6%
- viability at 10 µM [4]: 39.9%
- viability at 4 µM [5]: 65.7%
- viability at 10 µM [5]: 36.4%
- viability at 4 µM [6]: 98.9%
- viability at 10 µM [6]: 90.8%

SMILES: N#Cc1c(NCc2ccc(Cl)cc2)nc2ccccc2c1N1CCC(Oc2ccncc2)C1 (centres unmarked) [Compound 3344CN, 2-(4-chlorobenzylamino)-3-cyano-4-{3-[(pyridin-4-yl)oxy]pyrrolidin-1-yl}quinoline]
- viability at 4 µM [1]: 103%
- viability at 10 µM [1]: 57.8%
- viability at 4 µM [2]: 83.7%
- viability at 10 µM [2]: 60.3%
- viability at 4 µM [3]: 91.6%
- viability at 10 µM [3]: 48%
- viability at 4 µM [4]: 50.2%
- viability at 10 µM [4]: 40.1%
- viability at 4 µM [5]: 81.9%
- viability at 10 µM [5]: 52.6%
- viability at 4 µM [6]: 94.1%
- viability at 10 µM [6]: 62.7%

SMILES: Cc1nccnc1OC1CCN(c2c(C#N)c(NCc3ccc(Cl)cc3)nc3ccccc23)C1 (centres unmarked) [Compound 3362CN, 2-(4-chlorobenzylamin)-3-cyano-4-{3-[(3-methylpyrazin-2-yl)oxy]pyrrolidin-1-yl}quinoline]
- viability at 4 µM [1]: 105%
- viability at 10 µM [1]: 88.6%
- viability at 4 µM [2]: 81.6%
- viability at 10 µM [2]: 68.6%
- viability at 4 µM [3]: 46.8%
- viability at 10 µM [3]: 31.4%
- viability at 4 µM [4]: 66.7%
- viability at 10 µM [4]: 35.1%
- viability at 4 µM [5]: 15.3%
- viability at 10 µM [5]: 5.6%
- viability at 4 µM [6]: 78.5%
- viability at 10 µM [6]: 52.5%
